Assay [1] deals with T1, Cloned human M1 receptor (CHRM1) (Homo sapiens, UniProt P11229).
T1 construct: expressed in transfected cells; host or cells: HEK293
T1 sequence (P11229 1-460): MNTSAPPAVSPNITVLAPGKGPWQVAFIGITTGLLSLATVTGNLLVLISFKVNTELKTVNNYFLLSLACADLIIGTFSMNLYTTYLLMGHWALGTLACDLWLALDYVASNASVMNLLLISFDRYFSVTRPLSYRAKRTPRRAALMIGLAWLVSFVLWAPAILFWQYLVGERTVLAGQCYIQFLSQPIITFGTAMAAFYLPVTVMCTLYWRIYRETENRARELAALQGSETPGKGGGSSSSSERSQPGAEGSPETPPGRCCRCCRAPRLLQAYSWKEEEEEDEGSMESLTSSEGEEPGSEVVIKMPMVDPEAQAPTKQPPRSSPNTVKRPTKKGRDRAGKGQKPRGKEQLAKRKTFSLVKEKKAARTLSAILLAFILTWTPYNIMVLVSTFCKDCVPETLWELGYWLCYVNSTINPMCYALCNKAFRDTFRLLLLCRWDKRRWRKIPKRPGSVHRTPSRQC
Kind of assay: CHRM1 Ca++ Flux Assay (HEK293 M1 cells, agonist mode). Format: cell-based. To be noted: for M1 FDSS PA % / Emax: Percent Activity (PA); for EC50: geometric mean if tested more than once, read-out: M1 FDSS EC50; for Emax: read-out: M1 FDSS PA %. The procedure:
(§1) The above examples were characterized by measuring the intracellular mobilization of Ca^++ ions caused by signaling events mediated by the receptor. The Intra-cellular Calcium flux levels were captured by the highly sensitive Ca^++ indicator, Calcium Assay Kit (BD Biosciences; Catalog Number 640178. The fluorescent activity from all receptors were monitored by the fluorescent imager, FDSS 7000EX (Hamamatsu) over a span of 3 minutes. The change in Calcium flux was readily captured upon activation with the muscarinic orthosteric agonist, Carbachol.
Cloned human M1 receptor (CHRM1) was stably expressed in HEK293 cells and were grown and maintained in a monolayer culture with DMEM/High Glucose (Life Technologies) supplemented with 10% Fetal Bovine Serum, 1×Pen-Strep, and 0.5 mg/mL Geneticin in a humidified atmosphere (5% CO2) at 37° C. The cultures were grown to 90% confluency in T150 flasks (Corning) and washed with 1×DPBS and lifted with 0.05% Trypsin (Life Technologies). The cells were then spun (1K rpm, 3 minutes) and frozen using Recovery Cell Culture Freezing Media (Gibco Technologies). Cells were stored in liquid nitrogen and thawed a day before the assay.
Prior to the day of the assay, stable HEK293 M1 cells were thawed and plated on 384 well black walled clear bottom TC treated plates (Greiner Cat #781091) at 25K cells/well with DMEM/High Glucose supplemented with 10% FBS (Hyclone) Pen-Strep (Life Technologies) and kept overnight in a humidified atmosphere (5% CO2) at 37° C. The following day, cells were loaded with 20 uL Ca^++ dye (BD Biosciences) using Loading Buffer (HBSS +Ca/+Mg, 20 mM HEPES) and placed back in cell incubator for a minimum of 1 hour. The dye was replaced with 45 μL Assay Buffer (HBSS −Ca/−Mg, 20 mM HEPES) and kept at room temperature prior to running on cell imager. Compounds were prepared in Assay Buffer and 5 uL was added to the cells. The FDSS 7000EX (Hamamatsu) was used to acquire Ca++ traces for 3 minutes from cells treated with 11 point dose in triplicate in order to generate dose response curves in agonist mode. All compounds were serially diluted in DMSO then prepared in Assay Buffer for Ca^++ flux studies. The dose response curves were generated from the average of triplicate wells obtained from each data point and used a non-linear regression of four parameter dose response algorithm. The Percent Activity (PA) was measured to EC100 of Carbachol.
(§2) If an Example was tested more than once in an assay, then the values below represent the geometric mean of the results from each independent experiment.

Assay [2] addresses T2, human cloned CHRM4 receptor (Homo sapiens, UniProt P08173).
T2 construct: expressed in transfected cells; host or cells: CHO-K1 (M4_CHO)
T2 sequence (P08173 1-479): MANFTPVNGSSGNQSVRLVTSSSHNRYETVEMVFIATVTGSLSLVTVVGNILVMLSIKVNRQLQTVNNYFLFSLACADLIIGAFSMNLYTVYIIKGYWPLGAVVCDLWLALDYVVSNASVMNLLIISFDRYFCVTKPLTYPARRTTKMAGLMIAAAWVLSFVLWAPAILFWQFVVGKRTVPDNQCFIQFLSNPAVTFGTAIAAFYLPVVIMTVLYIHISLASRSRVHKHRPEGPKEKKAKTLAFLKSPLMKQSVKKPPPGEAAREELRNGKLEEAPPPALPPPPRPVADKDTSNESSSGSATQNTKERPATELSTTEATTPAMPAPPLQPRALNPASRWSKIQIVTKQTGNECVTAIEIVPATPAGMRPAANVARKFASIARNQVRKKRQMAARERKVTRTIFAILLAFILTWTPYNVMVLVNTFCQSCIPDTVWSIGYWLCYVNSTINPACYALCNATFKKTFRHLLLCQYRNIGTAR
Kind of assay: CHRM4 Ca++ Flux Assay (M4_CHO cells, agonist mode). Type of assay: cell-based. The settings on record: for M4 FDSS PA % / Emax: Percent Activity (PA); for EC50: geometric mean if tested more than once, read-out: M4 FDSS EC50; for Emax: read-out: M4 FDSS PA %. The procedure: as §1
CHO-K1 cells stably expressing the human cloned CHRM4 receptor (M4_CHO cells) were grown and maintained in a monolayer culture with F12/HAM (Life Technologies) supplemented with 10% Fetal Bovine Serum, 1X Pen-Strep, and 0.4 mg/mL Geneticin in a humidified atmosphere (5% CO2) at 37° C. The cultures were grown to 80-90% confluency in T150 flasks (Corning) and washed with 1×DPBS then lifted with 0.05% Trypsin (Life Technologies). The cells were harvested in growth media then spun (1K rpm, 3 minutes) and cryopreserved using Recovery Cell Culture Freezing Media (Gibco Technologies). Cells were stored in liquid nitrogen and thawed a day before the assay.
Prior to the day of the assay, stable M4_CHO cells were thawed and plated on 384 well black walled clear bottom TC treated plates (Greiner Cat #781091) at 12K cells/well using F12/HAM Media supplemented with 10% FBS (Life Technologies) and kept overnight in a humidified atmosphere (5% CO2) at 37° C. The next day, cells were loaded with 20 μL Ca^++ dye (BD Biosciences) using Loading Buffer (HBSS +Ca/+Mg, 20 mM HEPES, 2.5 mM Probenecid) and placed back in cell incubator for a minimum of 1 hour. After incubation, the dye was replaced with 45 μL Assay Buffer (HBSS −Ca/−Mg, 20 mM HEPES, 2.5 mM Probenecid) supplemented with 20 μM ATP (Sigma Aldrich) and kept at room temperature in the dark for 60 minutes before running on a cell imager. The FDSS 7000EX (Hamamatsu) was used to capture Ca^++ traces for a span of 3 minutes from cells treated with 11 point dose of compound in triplicate in order to generate dose response curves in agonist mode. All compounds were serially diluted in DMSO then prepared in Assay Buffer for Ca^++ flux studies. The dose response curves were generated from the average of triplicate wells obtained from each data point and used a non-linear regression of four parameter dose response algorithm. The Percent Activity (PA) was measured to EC100 of Carbachol.
as §2

Counter-ions that a name gives are not always drawn.

As usually defined, the EC50 is the concentration at which the effect is half-maximal. As to `CC1(C)C[C@@H](Oc2ccc(F)cc2C2CCN([C@@H]3COC4(C3)CN(c3nnco3)C4)CC2)CO1` (single isomer, unassigned) [Example 2O, (S)-7-(4-(2-(((R)-5,5-dimethyltetrahydrofuran-3-yl)oxy)-5-fluorophenyl)piperidin-1-yl)-2-(1,3,4-oxadiazol-2-yl)-5-oxa-2-azaspiro[3.4]octane or (S)-7-(4-(2-(((S)-5,5-dimethyltetrahydrofuran-3-yl)oxy)-5-fluorophenyl)piperidin-1-yl)-2-(1,3,4-oxadiazol-2-yl)-5-oxa-2-azaspiro[3.4]octane], in assay [1], the “M1 FDSS PA %” value is reported as 72% and the EC50 was determined as 1.12 µM. For the same molecule, in assay [2], the “M4 FDSS PA %” value was found to be 86% and the EC50 was 0.051 µM.
On to `OC[C@H]1C[C@H](Oc2ccc(F)cc2C2CCN([C@@H]3COC4(C3)CN(c3nnco3)C4)CC2)C1` (single isomer, unassigned) [Example 2II, ((1S,3r)-3-(2-(1-((S)-2-(1,3,4-oxadiazol-2-yl)-5-oxa-2-azaspiro[3.4]octan-7-yl)piperidin-4-yl)-4-fluorophenoxy)cyclobutyl)methanol or ((1R,3s)-3-(2-(1-((S)-2-(1,3,4-oxadiazol-2-yl)-5-oxa-2-azaspiro[3.4]octan-7-yl)piperidin-4-yl)-4-fluorophenoxy)cyclobutyl)methanol], for which, in assay [1], the “M1 FDSS PA %” value was 107% and the EC50 stood at 4.05 µM. In assay [2], the “M4 FDSS PA %” value is listed as 81% and the EC50 amounted to 0.124 µM.
For the molecule `COc1ccccc1C1CCN([C@@H]2COC3(C2)CN(c2nncs2)C3)CC1` [Example 5R, (S)-7-(4-(2-methoxyphenyl)piperidin-1-yl)-2-(1,3,4-thiadiazol-2-yl)-5-oxa-2-azaspiro[3.4]octane], in assay [1], the Emax came out at 52% and the EC50 was found to be 0.904 µM. Besides, in assay [2], the Emax is 73% and the concentration for a half-maximal effect (EC50) amounted to 0.096 µM.
On the same counts, the results for `c1ccc(C2CCN([C@@H]3COC4(C3)CN(c3ncco3)C4)CC2)c(OC2CC3(COC3)C2)c1` [Example 4M, (S)-7-(4-(2-((2-oxaspiro[3.3]heptan-6-yl)oxy)phenyl)piperidin-1-yl)-2-(oxazol-2-yl)-5-oxa-2-azaspiro[3.4]octane] are 49%, 2.81 µM, 82% and 0.086 µM.
On the same counts, the results for `Fc1cc(OC2COC2)c(C2CCN([C@@H]3COC4(C3)CN(c3nnco3)C4)CC2)cc1F` [Example 2FF, (S)-7-(4-(4,5-difluoro-2-(oxetan-3-yloxy)phenyl)piperidin-1-yl)-2-(1,3,4-oxadiazol-2-yl)-5-oxa-2-azaspiro[3.4]octane] are 70%, 0.264 µM, 66% and 0.026 µM.
The like results for `Fc1ccc(OC[C@H]2COCCO2)c(C2CCN([C@@H]3COC4(C3)CN(c3nncs3)C4)CC2)c1` [Example 5K, (S)-7-(4-(2-(((R)-1,4-dioxan-2-yl)methoxy)-5-fluorophenyl)piperidin-1-yl)-2-(1,3,4-thiadiazol-2-yl)-5-oxa-2-azaspiro[3.4]octane] were, in that order, 96%, 0.434 µM, 87% and 0.031 µM.
For `Fc1ccc(O[C@@H]2CCOC2)c(C2CCN([C@@H]3COC4(C3)CN(c3ncco3)C4)CC2)c1` [Example 4D, (S)-7-(4-(5-fluoro-2-(((R)-tetrahydrofuran-3-yl)oxy)phenyl)piperidin-1-yl)-2-(oxazol-2-yl)-5-oxa-2-azaspiro[3.4]octane], in assay [1], the Emax is 95% and the EC50 worked out at 0.741 µM. Also, in assay [2], the Emax was 77% and the EC50 was 0.007 µM.
As for `c1ccc(C2CCN([C@@H]3COC4(C3)CN(c3nncs3)C4)CC2)c(OC2COC2)c1` [Example 5Q, (S)-7-(4-(2-(oxetan-3-yloxy)phenyl)piperidin-1-yl)-2-(1,3,4-thiadiazol-2-yl)-5-oxa-2-azaspiro[3.4]octane formate salt], in assay [1], the Emax came to 86% and the concentration for a half-maximal effect (EC50) is 0.864 µM. In assay [2], the Emax was 83% and the EC50 was 0.092 µM.
On the same counts, the results for `Fc1ccc(C2CCN([C@@H]3COC4(C3)CN(c3ncco3)C4)CC2)c(OC2COC2)c1` [Example 4S, (S)-7-(4-(4-fluoro-2-(oxetan-3-yloxy)phenyl)piperidin-1-yl)-2-(oxazol-2-yl)-5-oxa-2-azaspiro[3.4]octane] are 89%, 0.624 µM, 74% and 0.021 µM.
The like results for `Fc1ccc(O[C@H]2CCOC2)c(C2CCN([C@@H]3COC4(C3)CN(c3nncs3)C4)CC2)c1` [Example 5O, (S)-7-(4-(5-fluoro-2-(((S)-tetrahydrofuran-3-yl)oxy)phenyl)piperidin-1-yl)-2-(1,3,4-thiadiazol-2-yl)-5-oxa-2-azaspiro[3.4]octane] were, in that order, 78%, 0.789 µM, 74% and 0.071 µM.
As to `Fc1cc(OCC2COC2)c(C2CCN([C@@H]3COC4(C3)CN(c3ncco3)C4)CC2)cc1F` [Example 4O, (S)-7-(4-(4,5-difluoro-2-(oxetan-3-ylmethoxy)phenyl)piperidin-1-yl)-2-(oxazol-2-yl)-5-oxa-2-azaspiro[3.4]octane], the Emax in assay [1] amounted to 63%; in assay [2] it was 58%. For the same molecule, the EC50 in assay [1] turned out to be 0.364 µM; in assay [2], 0.007 µM.

The values above are taken from US11485742B2, “2-azaspiro[3.4]octane derivatives as M4 agonists” (NOVARTIS AG, priority 2019, dated 2022).
